In ChEMBL document CHEMBL1132978, “Artificial neural network applied to prediction of fluorquinolone antibacterial activity by topological methods” (2000):
≈ marks a conversion by molar mass, not a printed value.

What follows are compounds tested on Escherichia coli (assay: Minimum inhibitory concentration against Escherichia coli).
Format: functional

In order of rising MIC:
1. Nc1c(F)c(N2CCC(N)C2)c(F)c2c1c(=O)c(C(=O)O)cn2C1CC1 (centres undefined)  0.006 µg/mL (≈ 0.0165 µM)
2. NCC1CCN(c2c(F)c(N)c3c(=O)c(C(=O)O)cn(C4CC4)c3c2F)C1 (centres undefined)  0.013 µg/mL (≈ 0.0344 µM)
3. NC1CCN(c2c(F)cc3c(=O)c(C(=O)O)cn(C4CC4)c3c2F)C1 (centres undefined)  0.013 µg/mL (≈ 0.0372 µM)
4. NC1CCN(c2nc3c(cc2F)c(=O)c(C(=O)O)cn3C2CC2)C1 (centres undefined)  0.013 µg/mL (≈ 0.0391 µM)
5. Nc1c(F)c(N2CCC(N)C2)cc2c1c(=O)c(C(=O)O)cn2C1CC1 (centres undefined)  0.013 µg/mL (≈ 0.0375 µM)
6. NCC1CCN(c2c(F)cc3c(=O)c(C(=O)O)cn(C4CC4)c3c2F)C1 (centres undefined)  0.025 µg/mL (≈ 0.0688 µM)
7. CC(N)C1CCN(c2cc3c(c(N)c2F)c(=O)c(C(=O)O)cn3C2CC2)C1 (centres undefined)  0.025 µg/mL (≈ 0.0668 µM)
8. CNCC1CCN(c2c(F)c(N)c3c(=O)c(C(=O)O)cn(C4CC4)c3c2F)C1 (centres undefined)  0.025 µg/mL (≈ 0.0637 µM)
9. COc1c(N2CCC(N)C2)c(F)cc2c(=O)c(C(=O)O)cn(C3CC3)c12 (centres undefined)  0.025 µg/mL (≈ 0.0692 µM)
10. COc1c(N2CCNCC2)c(F)cc2c(=O)c(C(=O)O)cn(C3CC3)c12  0.05 µg/mL (≈ 0.138 µM)
11. CCOc1c(N2CCC(C)C2)c(F)cc2c(=O)c(C(=O)O)cn(C3CC3)c12 (centres undefined)  0.05 µg/mL (≈ 0.134 µM)
12. NC1CCN(c2cc3c(cc2F)c(=O)c(C(=O)O)cn3C2CC2)C1 (centres undefined)  0.05 µg/mL (≈ 0.151 µM)
13. NCC1CCCN(c2c(F)cc3c(=O)c(C(=O)O)cn(C4CC4)c3c2F)C1 (centres undefined)  0.05 µg/mL (≈ 0.132 µM)
14. NCC1CCN(c2nc3c(cc2F)c(=O)c(C(=O)O)cn3C2CC2)C1 (centres undefined)  0.05 µg/mL (≈ 0.144 µM)
15. CC1CN(c2cc3c(cc2F)c(=O)c(C(=O)O)cn3C2CC2)CC(C)N1 (centres undefined)  0.05 µg/mL (≈ 0.139 µM)
16. CC1CN(c2cc3c(cc2F)c(=O)c(C(=O)O)cn3C2CC2)CCN1 (centres undefined)  0.05 µg/mL (≈ 0.145 µM)
17. COc1c(N2CCC(CN)C2)c(F)cc2c(=O)c(C(=O)O)cn(C3CC3)c12 (centres undefined)  0.05 µg/mL (≈ 0.133 µM)
18. NCC1CCN(c2nc3c(cc2F)c(=O)c(C(=O)O)cn3-c2ccc(F)cc2F)C1 (centres undefined)  0.05 µg/mL (≈ 0.12 µM)
19. CCn1cc(C(=O)O)c(=O)c2cc(F)c(N3CCC(N)C3)c(F)c21 (centres undefined)  0.05 µg/mL (≈ 0.148 µM)
20. CCOc1c(N2CCC(N)C2)c(F)c(N)c2c(=O)c(C(=O)O)cn(C3CC3)c12 (centres undefined)  0.05 µg/mL (≈ 0.128 µM)
21. CN1CCN(c2cc3c(cc2F)c(=O)c(C(=O)O)cn3C2CC2)CC1  0.05 µg/mL (≈ 0.145 µM)
22. COc1c(N2CCC(N)CC2)c(F)c(N)c2c(=O)c(C(=O)O)cn(C3CC3)c12  0.1 µg/mL (≈ 0.256 µM)
23. COc1c(N2CCC(CN)CC2)c(F)cc2c(=O)c(C(=O)O)cn(C3CC3)c12  0.1 µg/mL (≈ 0.257 µM)
24. COc1c(N2CCCC(N)C2)c(F)c(N)c2c(=O)c(C(=O)O)cn(C3CC3)c12 (centres undefined)  0.1 µg/mL (≈ 0.256 µM)
25. CCCCN1CCN(c2cc3c(cc2F)c(=O)c(C(=O)O)cn3C2CC2)CC1  0.1 µg/mL (≈ 0.258 µM)
26. CNC(C)C1CCN(c2cc3c(c(N)c2F)c(=O)c(C(=O)O)cn3C2CC2)C1 (centres undefined)  0.1 µg/mL (≈ 0.257 µM)
27. COc1c(N2CCC(C)(CN)C2)c(F)c(N)c2c(=O)c(C(=O)O)cn(C3CC3)c12 (centres undefined)  0.1 µg/mL (≈ 0.247 µM)
28. CCNCC1CCN(c2nc3c(cc2F)c(=O)c(C(=O)O)cn3C2CC2)C1 (centres undefined)  0.1 µg/mL (≈ 0.267 µM)
29. CCNCC1CCN(c2cc3c(cc2F)c(=O)c(C(=O)O)cn3C2CC2)C1 (centres undefined)  0.1 µg/mL (≈ 0.268 µM)
30. O=C(O)c1cn(-c2ccc(F)cc2F)c2cc(N3CCNCC3)c(F)cc2c1=O  0.1 µg/mL (≈ 0.248 µM)
31. NCC1CCCN(c2c(F)cc3c(=O)c(C(=O)O)cn(C4CC4)c3c2Cl)C1 (centres undefined)  0.1 µg/mL (≈ 0.254 µM)
32. CC(C)N1CCN(c2cc3c(cc2F)c(=O)c(C(=O)O)cn3C2CC2)CC1  0.1 µg/mL (≈ 0.268 µM)
33. CCOc1c(N2CCNC(C)C2)c(F)cc2c(=O)c(C(=O)O)cn(C3CC3)c12 (centres undefined)  0.1 µg/mL (≈ 0.257 µM)
34. NC1CCN(c2c(F)cc3c(=O)c(C(=O)O)cn(C4CC4)c3c2C(F)(F)F)C1 (centres undefined)  0.1 µg/mL (≈ 0.25 µM)
35. COc1c(N2CC(C)NC(C)C2)c(F)cc2c(=O)c(C(=O)O)cn(C3CC3)c12 (centres undefined)  0.1 µg/mL (≈ 0.257 µM)
36. CCn1cc(C(=O)O)c(=O)c2cc(F)c(N3CCC(CN)C3)c(F)c21 (centres undefined)  0.1 µg/mL (≈ 0.285 µM)
37. CCC1CN(c2cc3c(cc2F)c(=O)c(C(=O)O)cn3C2CC2)CCN1 (centres undefined)  0.1 µg/mL (≈ 0.278 µM)
38. COc1c(N2CCN(C)CC2)c(F)cc2c(=O)c(C(=O)O)cn(C3CC3)c12  0.1 µg/mL (≈ 0.266 µM)
39. COc1c(N2CCC(C)(CN)C2)c(F)cc2c(=O)c(C(=O)O)cn(C3CC3)c12 (centres undefined)  0.1 µg/mL (≈ 0.257 µM)
40. CCNCC1CCN(c2c(F)cc3c(=O)c(C(=O)O)cn(C4CC4)c3c2OC)C1 (centres undefined)  0.1 µg/mL (≈ 0.248 µM)
41. CC1(CN)CCN(c2cc3c(cc2F)c(=O)c(C(=O)O)cn3C2CC2)C1 (centres undefined)  0.1 µg/mL (≈ 0.278 µM)
42. COc1c(N2CCCC(CN)C2)c(F)c(N)c2c(=O)c(C(=O)O)cn(C3CC3)c12 (centres undefined)  0.1 µg/mL (≈ 0.247 µM)
43. CNCC1CCN(c2cc3c(cc2F)c(=O)c(C(=O)O)cn3-c2ccc(F)cc2F)C1 (centres undefined)  0.2 µg/mL (≈ 0.464 µM)
44. CC(C)(C)n1cc(C(=O)O)c(=O)c2cc(F)c(N3CCNCC3)cc21  0.2 µg/mL (≈ 0.576 µM)
45. CCOc1c(N2CCCC(N)C2)c(F)cc2c(=O)c(C(=O)O)cn(C3CC3)c12 (centres undefined)  0.2 µg/mL (≈ 0.514 µM)
46. CCNCC1CCN(c2nc3c(cc2F)c(=O)c(C(=O)O)cn3-c2ccc(F)cc2F)C1 (centres undefined)  0.2 µg/mL (≈ 0.448 µM)
47. CN(C)CC1CCN(c2cc3c(cc2F)c(=O)c(C(=O)O)cn3C2CC2)C1 (centres undefined)  0.2 µg/mL (≈ 0.536 µM)
48. CCOc1c(N2CCCC(CN)C2)c(F)cc2c(=O)c(C(=O)O)cn(C3CC3)c12 (centres undefined)  0.2 µg/mL (≈ 0.496 µM)
49. CCn1cc(C(=O)O)c(=O)c2cc(F)c(N3CCC(N)C3)c(OC)c21 (centres undefined)  0.2 µg/mL (≈ 0.572 µM)
50. CCOc1c(N2CCC(C)(CN)C2)c(F)c(N)c2c(=O)c(C(=O)O)cn(C3CC3)c12 (centres undefined)  0.2 µg/mL (≈ 0.478 µM)
51. CCOc1c(N2CCC(C)(CN)C2)c(F)cc2c(=O)c(C(=O)O)cn(C3CC3)c12 (centres undefined)  0.2 µg/mL (≈ 0.496 µM)
52. CC1(CN)CCN(c2nc3c(cc2F)c(=O)c(C(=O)O)cn3C2CC2)C1 (centres undefined)  0.2 µg/mL (≈ 0.555 µM)
53. CCOc1c(N2CCCC(N)C2)c(F)c(N)c2c(=O)c(C(=O)O)cn(C3CC3)c12 (centres undefined)  0.2 µg/mL (≈ 0.495 µM)
54. CNCC1CCN(c2cc3c(cc2F)c(=O)c(C(=O)O)cn3C2CC2)C1 (centres undefined)  0.2 µg/mL (≈ 0.556 µM)
55. CC1CN(c2cc3c(cc2F)c(=O)c(C(=O)O)cn3C2CCC2)CC(C)N1 (centres undefined)  0.4 µg/mL (≈ 1.07 µM)
56. CNCC1CCN(c2cc3c(cc2F)c(=O)c(C(=O)O)cn3C(C)(C)C)C1 (centres undefined)  0.4 µg/mL (≈ 1.07 µM)
57. NCC1CCCN(c2cc3c(cc2F)c(=O)c(C(=O)O)cn3C2CC2)C1 (centres undefined)  0.4 µg/mL (≈ 1.11 µM)
58. CCNCC1CCN(c2cc3c(cc2F)c(=O)c(C(=O)O)cn3-c2ccc(F)cc2F)C1 (centres undefined)  0.4 µg/mL (≈ 0.898 µM)
59. NCC1CCCN(c2c(F)cc3c(=O)c(C(=O)O)cn(C4CC4)c3c2N)C1 (centres undefined)  0.4 µg/mL (≈ 1.07 µM)
60. NC1CCN(c2cc3c(cc2F)c(=O)c(C(=O)O)cn3C2CCC2)C1 (centres undefined)  0.4 µg/mL (≈ 1.16 µM)
61. CCn1cc(C(=O)O)c(=O)c2cc(F)c(N3CCC(N)C3)cc21 (centres undefined)  0.4 µg/mL (≈ 1.25 µM)
62. CC1CN(c2cc3c(cc2F)c(=O)c(C(=O)O)cn3C2CCC2)CCN1 (centres undefined)  0.4 µg/mL (≈ 1.11 µM)
63. CC(C)NCC1CCN(c2cc3c(cc2F)c(=O)c(C(=O)O)cn3C2CC2)C1 (centres undefined)  0.4 µg/mL (≈ 1.03 µM)
64. CCN1CCN(c2cc3c(cc2F)c(=O)c(C(=O)O)cn3-c2ccc(F)cc2F)CC1  0.4 µg/mL (≈ 0.927 µM)
65. CC1CN(c2cc3c(cc2F)c(=O)c(C(=O)O)cn3-c2ccc(F)cc2F)CC(C)N1 (centres undefined)  0.4 µg/mL (≈ 0.927 µM)
66. CC(C)N1CCN(c2cc3c(cc2F)c(=O)c(C(=O)O)cn3-c2ccc(F)cc2F)CC1  0.8 µg/mL (≈ 1.8 µM)
67. CCN1CCN(c2cc3c(cc2F)c(=O)c(C(=O)O)cn3C2CCC2)CC1  0.8 µg/mL (≈ 2.14 µM)
68. CCNCC1CCN(c2c(F)cc3c(=O)c(C(=O)O)cn(C4CC4)c3c2OCC)CC1  0.8 µg/mL (≈ 1.85 µM)
69. CC(C)n1cc(C(=O)O)c(=O)c2cc(F)c(N3CCC(N)C3)cc21 (centres undefined)  0.8 µg/mL (≈ 2.4 µM)
70. CNCC1CCN(c2cc3c(cc2F)c(=O)c(C(=O)O)cn3C2CCC2)C1 (centres undefined)  0.8 µg/mL (≈ 2.14 µM)
71. CC1CN(c2cc3c(cc2F)c(=O)c(C(=O)O)cn3C(C)C)CCN1 (centres undefined)  0.8 µg/mL (≈ 2.3 µM)
72. CC(C)n1cc(C(=O)O)c(=O)c2cc(F)c(N3CCNCC3)cc21  0.8 µg/mL (≈ 2.4 µM)
73. CCN1CCN(c2cc3c(cc2F)c(=O)c(C(=O)O)cn3C(C)C)CC1  1.6 µg/mL (≈ 4.43 µM)
74. CCn1cc(C(=O)O)c(=O)c2cc(F)c(N3CCC(CNC)C3)cc21 (centres undefined)  3.1 µg/mL (≈ 8.92 µM)
